Laboratory results published in patent US12209102B2, “Heterocyclic compounds and uses thereof” (Kumquat Biosciences Inc., priority 2022, dated 2025).

Tests used:
Format in all cases: biochemical
K-Ras WT = molecular target: T1, K-Ras WT (Homo sapiens, UniProt P01116); test: HTRF resonance energy transfer assay, K-Ras WT / SOS1 interaction; details: HTRF assay of Example 5; read-out: IC50 against K-Ras WT
T1 construct: made in house; host or cells: E. coli BL21 (DE3)
How it was run: (§1)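 Buffer about 5 mM HEPES pH 7.4 with ~150 mM NaCl, ~1 mM DTT, 0.05% BSA, 0.0025% (v/v) Igepal. Protein constructs used at molarity matching the IC50 range studied (e.g. ~500 nM). FRET between tagged K-Ras and hSOS1 measured after short incubation.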

K-Ras G12D = molecular target: T2, K-Ras G12D (Homo sapiens, UniProt P01116, G12D); test: HTRF resonance energy transfer assay, K-Ras G12D / SOS1 interaction; details: HTRF assay of Example 5; read-out: IC50 against K-Ras G12D
T2 construct: made in house; host or cells: E. coli BL21 (DE3)
How it was run: as §1

K-Ras G12S = molecular target: T3, K-Ras G12S (Homo sapiens, UniProt P01116, G12S); test: HTRF resonance energy transfer assay, K-Ras G12S / SOS1 interaction; details: HTRF assay of Example 5; read-out: IC50 against K-Ras G12S
T3 construct: made in house; host or cells: E. coli BL21 (DE3)
How it was run: as §1

K-Ras G12V = molecular target: T4, K-Ras G12V (Homo sapiens, UniProt P01116, G12V); test: HTRF resonance energy transfer assay, K-Ras G12V / SOS1 interaction; details: HTRF assay of Example 5; read-out: IC50 against K-Ras G12V
T4 construct: made in house; host or cells: E. coli BL21 (DE3)
How it was run: as §1

Measured: IC50

T4 sequence (P01116 1-188 isoform P01116-2 G12V): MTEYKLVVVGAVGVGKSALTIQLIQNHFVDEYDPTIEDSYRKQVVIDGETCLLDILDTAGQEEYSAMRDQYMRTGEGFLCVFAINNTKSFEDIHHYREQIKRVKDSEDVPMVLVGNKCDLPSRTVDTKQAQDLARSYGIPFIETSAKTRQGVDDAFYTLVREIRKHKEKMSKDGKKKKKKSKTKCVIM
T2 sequence (P01116 1-188 isoform P01116-2 G12D): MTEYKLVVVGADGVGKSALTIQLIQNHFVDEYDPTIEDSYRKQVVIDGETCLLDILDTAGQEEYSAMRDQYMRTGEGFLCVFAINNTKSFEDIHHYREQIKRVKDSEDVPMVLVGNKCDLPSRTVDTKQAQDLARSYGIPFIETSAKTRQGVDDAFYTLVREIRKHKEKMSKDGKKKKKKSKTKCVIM
T3 sequence (P01116 1-188 isoform P01116-2 G12S): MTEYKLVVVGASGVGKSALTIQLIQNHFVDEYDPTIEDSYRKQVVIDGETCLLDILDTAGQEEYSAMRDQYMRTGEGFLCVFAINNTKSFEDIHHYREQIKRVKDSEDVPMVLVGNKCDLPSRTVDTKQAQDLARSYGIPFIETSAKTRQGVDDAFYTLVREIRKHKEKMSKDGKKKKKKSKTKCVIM
T1 sequence (P01116 1-188 isoform P01116-2): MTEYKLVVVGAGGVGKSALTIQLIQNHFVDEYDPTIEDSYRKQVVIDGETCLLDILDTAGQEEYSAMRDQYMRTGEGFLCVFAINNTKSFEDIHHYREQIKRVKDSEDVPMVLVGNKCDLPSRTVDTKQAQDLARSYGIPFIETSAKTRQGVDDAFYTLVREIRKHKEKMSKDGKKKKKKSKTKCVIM

CC(=O)C1COc2c(Cl)c(-c3ccc(F)c4sc(N)c(C#N)c34)c(F)c3nc(OC[C@@]45CCCN4C[C@H](F)C5)nc(c23)N1CC(F)F (stereo partly drawn) [Compound 981, 4-(5-acetyl-8-chloro-4-(2,2-difluoroethyl)-10-fluoro-2-(((2R,7aS)-2-fluorotetrahydro-1H-pyrrolizin-7a(5H)-yl)methoxy)-5,6-dihydro-4H-[1,4]oxazepino[5,6,7-de]quinazolin-9-yl)-2-amino-7-fluorobenzo[b]thiophene-3-carbonitrile]
< 100 nM: all assays above

N#Cc1c(N)sc2c(F)ccc(-c3c(Cl)c4c5c(nc(OC[C@@]67CCCN6C[C@H](F)C7)nc5c3F)N(CC(F)F)C(C3CC3(F)F)CO4)c12 (stereo partly drawn) [Compound 987, 2-amino-4-(8-chloro-5-(2,2-difluorocyclopropyl)-4-(2,2-difluoroethyl)-10-fluoro-2-(((2R,7aS)-2-fluorotetrahydro-1H-pyrrolizin-7a(5H)-yl)methoxy)-5,6-dihydro-4H-[1,4]oxazepino[5,6,7-de]quinazolin-9-yl)-7-fluorobenzo[b]thiophene-3-carbonitrile]
< 100 nM: all assays above

Cn1nc(NC(=O)C2CN2)cc1CN1CCOc2c(Cl)c(-c3ccc(F)c4sc(N)c(C#N)c34)c(F)c3nc(OC[C@@]45CCCN4C[C@H](F)C5)nc1c23 (stereo partly drawn) [Compound 999, N-(5-((9-(2-amino-3-cyano-7-fluorobenzo[b]thiophen-4-yl)-8-chloro-10-fluoro-2-(((2R,7aS)-2-fluorotetrahydro-1H-pyrrolizin-7a(5H)-yl)methoxy)-5,6-dihydro-4H-[1,4]oxazepino[5,6,7-de]quinazolin-4-yl)methyl)-1-methyl-1H-pyrazol-3-yl)aziridine-2-carboxamide]
< 100 nM: all assays above

C[C@H]1C[C@@H](N2CCOc3c(Cl)c(-c4ccc(F)c5sc(N)c(C#N)c45)c(F)c4nc(OC[C@@]56CCCN5C[C@H](F)C6)nc2c34)CN1 [Compound 1010, 2-amino-4-(8-chloro-10-fluoro-2-(((2R,7aS)-2-fluorotetrahydro-1H-pyrrolizin-7a(5H)-yl)methoxy)-4-((3R,5S)-5-methylpyrrolidin-3-yl)-5,6-dihydro-4H-[1,4]oxazepino[5,6,7-de]quinazolin-9-yl)-7-fluorobenzo[b]thiophene-3-carbonitrile]
< 100 nM: all assays above

CN1c2nc(OC[C@@]34CCCN3C[C@H](F)C4)nc3c(F)c(-c4ccc(F)c5sc(N)c(C#N)c45)c(Cl)c(c23)OC[C@@H]1CNC(=O)C(F)F [Compound 1018, N-(((5S)-9-(2-amino-3-cyano-7-fluorobenzo[b]thiophen-4-yl)-8-chloro-10-fluoro-2-(((2R,7aS)-2-fluorotetrahydro-1H-pyrrolizin-7a(5H)-yl)methoxy)-4-methyl-5,6-dihydro-4H-[1,4]oxazepino[5,6,7-de]quinazolin-5-yl)methyl)-2,2-difluoroacetamide]
< 100 nM: all assays above

C#Cc1c(F)ccc2cc(O)cc(-c3nc4c5c(nc(OC[C@@]67CCCN6C[C@H](F)C7)nc5c3F)N(C3CCN(C=O)C3)CCO4)c12 (stereo partly drawn) [Compound 1019, 3-(5-(8-ethynyl-7-fluoro-3-hydroxynaphthalen-1-yl)-4-fluoro-2-(((2R,7aS)-2-fluorotetrahydro-1H-pyrrolizin-7a(5H)-yl)methoxy)-8,9-dihydro-10H-7-oxa-1,3,6,10-tetraazacyclohepta[de]naphthalen-10-yl)pyrrolidine-1-carbaldehyde]
< 100 nM: all assays above

N#Cc1c(N)sc2c(F)ccc(-c3c(Cl)c4c5c(nc(OC[C@@]67CCCN6C[C@H](F)C7)nc5c3F)N(Cc3ccn[nH]3)CCO4)c12 [Compound 1023, 4-(4-((1H-pyrazol-5-yl)methyl)-8-chloro-10-fluoro-2-(((2R,7aS)-2-fluorotetrahydro-1H-pyrrolizin-7a(5H)-yl)methoxy)-5,6-dihydro-4H-[1,4]oxazepino[5,6,7-de]quinazolin-9-yl)-2-amino-7-fluorobenzo[b]thiophene-3-carbonitrile]
< 100 nM: all assays above

N#CCC1COc2c(Cl)c(-c3ccc(F)c4sc(N)c(C#N)c34)c(F)c3nc(OC[C@@]45CCCN4C[C@H](F)C5)nc(c23)N1CCCN (stereo partly drawn) [Compound 1029, 2-amino-4-(4-(3-aminopropyl)-8-chloro-5-(cyanomethyl)-10-fluoro-2-(((2R,7aS)-2-fluorotetrahydro-1H-pyrrolizin-7a(5H)-yl)methoxy)-5,6-dihydro-4H-[1,4]oxazepino[5,6,7-de]quinazolin-9-yl)-7-fluorobenzo[b]thiophene-3-carbonitrile]
< 100 nM: all assays above

C/C=C\[C@H]1COc2c(Cl)c(-c3ccc(F)c4sc(N)c(C#N)c34)c(F)c3nc(OC[C@@]45CCCN4C[C@H](F)C5)nc(c23)N1CC(F)F [Compound 1032, 2-amino-4-((5S)-8-chloro-4-(2,2-difluoroethyl)-10-fluoro-2-(((2R,7aS)-2-fluorotetrahydro-1H-pyrrolizin-7a(5H)-yl)methoxy)-5-((Z)-prop-1-en-1-yl)-5,6-dihydro-4H-[1,4]oxazepino[5,6,7-de]quinazolin-9-yl)-7-fluorobenzo[b]thiophene-3-carbonitrile]
< 100 nM: all assays above

N#Cc1c(N)sc2c(F)ccc(-c3c(Cl)c4c5c(nc(OC[C@@]67CCCN6C[C@H](F)C7)nc5c3F)N(C3CCCNCC3)CCO4)c12 (stereo partly drawn) [Compound 1059, 2-amino-4-(4-(azepan-4-yl)-8-chloro-10-fluoro-2-(((2R,7aS)-2-fluorotetrahydro-1H-pyrrolizin-7a(5H)-yl)methoxy)-5,6-dihydro-4H-[1,4]oxazepino[5,6,7-de]quinazolin-9-yl)-7-fluorobenzo[b]thiophene-3-carbonitrile]
< 100 nM: all assays above

C#Cc1c(F)ccc2cc(O)cc(-c3nc4c5c(nc(OC[C@@]67CCCN6C[C@H](F)C7)nc5c3F)N(C3CCCN(C=O)C3)CCO4)c12 (stereo partly drawn) [Compound 1066, 3-(5-(8-ethynyl-7-fluoro-3-hydroxynaphthalen-1-yl)-4-fluoro-2-(((2R,7aS)-2-fluorotetrahydro-1H-pyrrolizin-7a(5H)-yl)methoxy)-8,9-dihydro-10H-7-oxa-1,3,6,10-tetraazacyclohepta[de]naphthalen-10-yl)piperidine-1-carbaldehyde]
< 100 nM: all assays above

CC1(O)CCCC(N2CCOc3c(Cl)c(-c4ccc(F)c5sc(N)c(C#N)c45)c(F)c4nc(OC[C@@]56CCCN5C[C@H](F)C6)nc2c34)C1 (stereo partly drawn) [Compound 1069, 2-amino-4-(8-chloro-10-fluoro-2-(((2R,7aS)-2-fluorotetrahydro-1H-pyrrolizin-7a(5H)-yl)methoxy)-4-(3-hydroxy-3-methylcyclohexyl)-5,6-dihydro-4H-[1,4]oxazepino[5,6,7-de]quinazolin-9-yl)-7-fluorobenzo[b]thiophene-3-carbonitrile]
< 100 nM: all assays above

C#C[C@H]1COc2c(Cl)c(-c3ccc(F)c4sc(N)c(C#N)c34)c(F)c3nc(OC[C@@]45CCCN4C[C@H](F)C5)nc(c23)N1CC(F)F [Compound 1075, 2-amino-4-((5S)-8-chloro-4-(2,2-difluoroethyl)-5-ethynyl-10-fluoro-2-(((2R,7aS)-2-fluorotetrahydro-1H-pyrrolizin-7a(5H)-yl)methoxy)-5,6-dihydro-4H-[1,4]oxazepino[5,6,7-de]quinazolin-9-yl)-7-fluorobenzo[b]thiophene-3-carbonitrile]
< 100 nM: all assays above

CS(=O)(=O)N1CC1C(=O)NCCN1CCOc2c(Cl)c(-c3ccc(F)c4sc(N)c(C#N)c34)c(F)c3nc(OC[C@@]45CCCN4C[C@H](F)C5)nc1c23 (stereo partly drawn) [Compound 1077, N-(2-(9-(2-amino-3-cyano-7-fluorobenzo[b]thiophen-4-yl)-8-chloro-10-fluoro-2-(((2R,7aS)-2-fluorotetrahydro-1H-pyrrolizin-7a(5H)-yl)methoxy)-5,6-dihydro-4H-[1,4]oxazepino[5,6,7-de]quinazolin-4-yl)ethyl)-1-(methylsulfonyl)aziridine-2-carboxamide]
< 100 nM: all assays above

N#Cc1c(N)sc2c(F)ccc(-c3c(Cl)c4c5c(nc(OC[C@@]67CCCN6C[C@H](F)C7)nc5c3F)N(CC(F)F)[C@@H](C3CC3C#N)CO4)c12 (stereo partly drawn) [Compound 1078, 2-amino-4-((5S)-8-chloro-5-(2-cyanocyclopropyl)-4-(2,2-difluoroethyl)-10-fluoro-2-(((2R,7aS)-2-fluorotetrahydro-1H-pyrrolizin-7a(5H)-yl)methoxy)-5,6-dihydro-4H-[1,4]oxazepino[5,6,7-de]quinazolin-9-yl)-7-fluorobenzo[b]thiophene-3-carbonitrile]
< 100 nM: all assays above
